This note sets out measurements from the Kinase Knowledgebase extract (Sharma et al. 2016).

Assay [1] has as its target MAPK14 (human) (UniProt Q16539). The assay is described as follows: Inhibition of TNF-alpha Release in THP-1 Cell. The conditions noted are these: thp1.
Assay [2] has the same target. The assay is described as follows: Inhibition of p38 MAP Kinase in Whole Blood.
Assay [3] has as its target MAPK14 (mouse). The assay is described as follows: Inhibition of MAPK14 Kinase Activity.

Molecules are shown by their SMILES.

Chain of MAPK14 (human) (Q16539 whole entry, looked up): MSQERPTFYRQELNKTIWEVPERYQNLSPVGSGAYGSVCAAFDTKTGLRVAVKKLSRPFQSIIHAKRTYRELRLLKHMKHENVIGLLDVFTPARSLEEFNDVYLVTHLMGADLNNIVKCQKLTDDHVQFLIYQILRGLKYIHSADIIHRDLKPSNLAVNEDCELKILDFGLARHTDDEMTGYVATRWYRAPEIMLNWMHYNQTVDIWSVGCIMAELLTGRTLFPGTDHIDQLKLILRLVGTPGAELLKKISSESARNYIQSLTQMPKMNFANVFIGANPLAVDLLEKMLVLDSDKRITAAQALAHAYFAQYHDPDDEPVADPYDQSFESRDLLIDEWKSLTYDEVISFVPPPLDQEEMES

What is called IC50 is the concentration needed to halve the response being measured. For `CC(C)N1CC2CC1CN2c1cc2c(nc1Sc1ccc(F)cc1F)CNC(=O)N2c1c(Cl)cccc1Cl` (centres undefined), the IC50 in assay [1] was 1.6 nM; in assay [2], 65 nM.
As for `CC(C)N1CCN(c2cc3c(nc2Sc2ccc(F)cc2F)CNC(=O)N3c2c(Cl)cccc2Cl)CC1`, the IC50 in assay [2] was 170 nM.
On to `O=C1NCc2nc(Sc3ccc(F)cc3F)c(N3CC4CC3CN4C3CC3)cc2N1c1c(Cl)cccc1Cl` (centres undefined), for which the figures for the IC50 in assay [1] and in assay [2] were 8.2 nM and 220 nM, respectively.
For `CN(C)CCN1CCN(c2cc3c(nc2Sc2ccc(F)cc2F)CNC(=O)N3c2c(Cl)cccc2Cl)CC1`, the results for the IC50 in assay [1] and in assay [2] were 0.7 nM and 14 nM, respectively.
Turning to `O=C1NCc2nc(Sc3ccc(F)cc3F)c(N3CC4CC3CN4CC3CC3)cc2N1c1c(Cl)cccc1Cl` (centres undefined), the IC50 in assay [1] was 1.2 nM; in assay [2], 51 nM.
Regarding `O=C1NCc2nc(Sc3ccc(F)cc3F)c(N3CCOCC3)cc2N1c1c(Cl)cccc1Cl`, the values for the IC50 in assay [1] and in assay [2] were 22 nM and 400 nM, respectively.
In assay [2], `O=C1NCc2nc(Sc3ccc(F)cc3F)c(OC3CCNCC3)cc2N1c1c(Cl)cccc1Cl` gave an IC50 of 63 nM.
On to `O=C1NCc2nc(Sc3ccc(F)cc3F)c(N3CCC(CCN4CCCC4)CC3)cc2N1c1c(Cl)cccc1Cl`, for which the IC50 in assay [1] worked out at 7.3 nM; in assay [2] it was 940 nM.
Turning to `O=C1NCc2nc(Sc3ccc(F)cc3F)c(N3CC4CC3CN4)cc2N1c1c(Cl)cccc1Cl` (centres undefined), the IC50 amounted to 1.5 nM in assay [1] and 11.2 nM in assay [2].
Turning to `CCN1CC2CC1CN2c1cc2c(nc1Sc1ccc(F)cc1F)CNC(=O)N2c1c(Cl)cccc1Cl` (centres undefined), the IC50 worked out at 1.3 nM in assay [1] and 42 nM in assay [2].
In assay [1], `O=C1NCc2nc(Sc3ccc(F)cc3F)c(N3CC4CCC3C4)cc2N1c1c(Cl)cccc1Cl` (centres undefined) displayed an IC50 of 500 nM.
As to `O=C1NCc2nc(Sc3ccc(F)cc3F)c(N3CCCCC3)cc2N1c1c(Cl)cccc1Cl`, in assay [1], the IC50 stood at 500 nM.
`CC1CN(c2cc3c(nc2Sc2ccc(F)cc2F)CNC(=O)N3c2c(Cl)cccc2Cl)CC(C)O1` (centres undefined): the IC50 in assay [1] amounted to 25 nM; in assay [2], 72 nM.
Turning to `O=C1NCc2nc(Sc3ccc(F)cc3F)c(NC3CCNCC3)cc2N1c1c(Cl)cccc1Cl`, the IC50 in assay [1] was found to be 9 nM; in assay [2], 17 nM.
For the compound `O=C1NCc2nc(Sc3ccc(F)cc3F)c(N3CCNCC3)cc2N1c1c(Cl)cccc1Cl`, the IC50 in assay [1] amounted to 5 nM; in assay [2], 20 nM.
`O=c1ncc2nc(Sc3ccc(F)cc3F)ccc2n1-c1c(Cl)cccc1Cl` showed an IC50 in assay [3] of 600 nM.
For the compound `O=C1NCc2nc(Sc3ccc(F)cc3F)c(N3CCN(CCN4CCCC4)CC3)cc2N1c1c(Cl)cccc1Cl`, the figures for the IC50 in assay [1] and in assay [2] were 2 nM and 9 nM, respectively.
